# Data: US20240254129A1, “HETEROCYCLIC COMPOUNDS AND USES THEREOF” (Kumquat Biosciences Inc., priority 2021, published 2024)
# How the values were obtained:
# [1] = molecular target: GST-tagged K-Ras mutant / His-tagged hSOS1 (Homo sapiens, UniProt P01116); assay: HTRF assay, K-Ras mutant / SOS1 interaction; type: binding; conditions: compound nos. 401-703; read-out: IC50 against mutant Kras
# Procedure, shortened: (§1)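 Buffer ~5 mM HEPES pH 7.4, ~150 mM NaCl, ~1 mM DTT, 0.05% BSA, 0.0025% Igepal. Cpd in DMSO + Ras/donor mix + SOS1/acceptor mix; ≥10 min; HTRF 665/620 ratio → IC50.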
# wildtype Kras / hSOS1 = molecular target: T1, wildtype Kras / hSOS1 (Homo sapiens, UniProt P01116); assay: HTRF assay, wildtype Kras / SOS1 interaction; type: binding; conditions: compound nos. 401-703; read-out: IC50 against wildtype Kras
# T1 construct: made in house; host or cells: E. coli BL21 (DE3)
# T1 sequence (P01116 1-188 isoform P01116-2): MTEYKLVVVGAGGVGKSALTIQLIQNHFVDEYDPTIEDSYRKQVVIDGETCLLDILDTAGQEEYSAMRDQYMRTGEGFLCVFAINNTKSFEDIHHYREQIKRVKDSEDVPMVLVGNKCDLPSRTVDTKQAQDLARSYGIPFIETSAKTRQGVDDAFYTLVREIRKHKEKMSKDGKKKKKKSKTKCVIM
# Procedure, shortened: as §1
# Sequence of GST-tagged K-Ras mutant / His-tagged hSOS1 (P01116 whole entry G12D, form open): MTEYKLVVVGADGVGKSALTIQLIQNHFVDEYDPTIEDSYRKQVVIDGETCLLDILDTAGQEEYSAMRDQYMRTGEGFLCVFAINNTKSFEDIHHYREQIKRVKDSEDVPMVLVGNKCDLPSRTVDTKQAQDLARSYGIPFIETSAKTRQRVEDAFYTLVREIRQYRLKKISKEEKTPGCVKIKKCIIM
Compound,IC50 [1],IC50 (wildtype Kras / hSOS1)
"Oc1cc(-c2c(Cl)cc3c(N4CC5CCC(C4)N5)nc(OCC45CCCN4CCC5)nc3c2F)cc(C(F)(F)F)c1 [Compound 614, 3-(4-(3,8-diazabicyclo-[3.2.1]octan-3-yl)-6-chloro-8-fluoro-2-((tetrahydro-1H-pyrrolizin-7a(5H)-yl)meth-oxy)quinazolin-7-yl)-5-(trifluoromethyl)phenol]",> 500 nM,> 500 nM
"Nc1nc2c(-c3c(Cl)cc4c(N5CC6CCC(C5)N6)nc(OCC56CCCN5CCC6)nc4c3F)cc(Cl)cc2s1 [Compound 615, 4-(4-(3,8-diazabicyclo-[3.2.1]octan-3-yl)-6-chloro-8-fluoro-2-((tetrahydro-1H-pyrrolizin-7a(5H)-yl)meth-oxy)quinazolin-7-yl)-6-chlorobenzo[d]thiazol-2-amine]",< 500 nM,> 500 nM
"Nc1cc2cccc(-c3c(Cl)cc4c(N5CC6CCC(C5)N6)nc(OCC56CCCN5CCC6)nc4c3F)c2cn1 [Compound 618, 8-(4-(3,8-diazabicyclo-[3.2.1]octan-3-yl)-6-chloro-8-fluoro-2-((tetrahydro-1H-pyrrolizin-7a(5H)-yl)meth-oxy)quinazolin-7-yl)iso-quinolin-3-amine]",> 500 nM,> 500 nM
"Fc1c(-c2cccc3c2CCCC3)c(Cl)cc2c(N3CC4CCC(C3)N4)nc(OC[C@@]34CCCN3C[C@H](F)C4)nc12 [Compound 619, 4-(3,8-diazabicyclo[3.2.1]-octan-3-yl)-6-chloro-8-fluoro-2-(((2R,7aS)-2-fluorotetrahydro-1H-pyrrol-izin-7a(5H)-yl)methoxy)-7-(5,6,7,8-tetrahydronaph-thalen-1-yl)quinazoline]",> 500 nM,> 500 nM
"Nc1cc(-c2c(Cl)cc3c(N4CC5CCC(C4)N5)nc(OCC45CCCN4CCC5)nc3c2F)ccc1F [Compound 627, 5-(4-(3,8-diazabicyclo-[3.2.1]octan-3-yl)-6-chloro-8-fluoro-2-((tetrahydro-1H-pyrrolizin-7a(5H)-yl)meth-oxy)quinazolin-7-yl)-2-fluoroaniline]",> 500 nM,> 500 nM
"Cc1ccc2[nH]nc(C#N)c2c1-c1c(Cl)cc2c(N3CC4CCC(C3)N4)nc(OC[C@@]34CCCN3C[C@H](F)C4)nc2c1F [Compound 632, 4-(4-(3,8-diazabicyclo-[3.2.1]octan-3-yl)-6-chloro-8-fluoro-2-(((2R,7aS)-2-fluorotetrahydro-1H-pyrrol-izin-7a(5H)-yl)methoxy)-quin-azolin-7-yl)-5-methyl-1H-indazole-3-carbonitrile]",< 500 nM,> 500 nM
"Nc1nc2c(-c3c(Cl)cc4c(N5CCNCC(F)(F)C5)nc(OCC56CCCN5CCC6)nc4c3F)c(F)ccc2s1 [Compound 633, 4-(6-chloro-4-(6,6-difluoro-1,4-diazepan-1-yl)-8-fluoro-2-((tetrahydro-1H-pyrrol-izin-7a(5H)-yl)methoxy)-quinazolin-7-yl)-5-fluoro-benzo[d]thiazol-2-amine]",< 500 nM,> 500 nM
"Nc1nc2c(-c3ccc4c(N5CC6CCC(C5)N6)nc(OC[C@@]56CCCN5C[C@H](F)C6)nc4c3F)cccc2o1 [Compound 634, 4-(4-(3,8-diazabicyclo-[3.2.1]octan-3-yl)-8-fluoro-2-(((2R,7aS)-2-fluorotetra-hydro-1H-pyrrolizin-7a(5H)-yl)methoxy)quinazolin-7-yl)benzo[d]oxazol-2-amine]",> 500 nM,> 500 nM
"Nc1nc2c(-c3cc4ncnc(N5CC6CCC(C5)N6)c4cc3Cl)ccc(F)c2s1 [Compound 635, 4-(4-(3,8-diazabicyclo-[3.2.1]octan-3-yl)-6-chloro-quinazolin-7-yl)-7-fluoro-benzo[d]thiazol-2-amine]",> 500 nM,> 500 nM
"Nc1cc(-c2c(Cl)cc3c(N4CC5CCC(C4)N5)nc(OCC45CCCN4CCC5)nc3c2F)c2ccccc2n1 [Compound 636, 4-(4-(3,8-diazabicyclo-[3.2.1]octan-3-yl)-6-chloro-8-fluoro-2-((tetrahydro-1H-pyrrolizin-7a(5H)-yl)meth-oxy)quinazolin-7-yl)quin-olin-2-amine]",> 500 nM,> 500 nM
"Fc1c(-c2cccc3c2CCCS3)c(Cl)cc2c(N3CC4CCC(C3)N4)nc(OC[C@@]34CCCN3C[C@H](F)C4)nc12 [Compound 637, 4-(3,8-diazabicyclo[3.2.1]-octan-3-yl)-6-chloro-8-fluoro-2-(((2R,7aS)-2-fluoro-tetrahydro-1H-pyrrolizin-7a(5H)-yl)methoxy)-7-(thio-chroman-5-yl)quinazoline]",> 500 nM,> 500 nM
"CNCCCN1CCCN(c2nc(OCC34CCCN3CCC4)nc3c(F)c(-c4ccc(F)c5sc(N)nc45)c(Cl)cc23)CC1 [Compound 640, 4-(6-chloro-8-fluoro-4-(4-(3-(methylamino)propyl)-1,4-diazepan-1-yl)-2-((tetrahydro-1H-pyrrolizin-7a(5H)-yl)methoxy)quin-azolin-7-yl)-7-fluorobenzo-[d]thiazol-2-amine]",< 500 nM,> 500 nM
"Nc1cc(-c2ccc3c(N4CC5CCC(C4)N5)nc(OCC45CCCN4CCC5)nc3c2F)c2ccccc2n1 [Compound 641, 4-(4-(3,8-diazabicyclo-[3.2.1]octan-3-yl)-8-fluoro-2-((tetrahydro-1H-pyrrol-izin-7a(5H)-yl)methoxy)-quinazolin-7-yl)quinolin-2-amine]",> 500 nM,> 500 nM
"CN1CCC[C@H]1COc1nc(N2CCC(F)C(F)CC2)c2cc(Cl)c(-c3cccc4sc(N)nc34)c(F)c2n1 (stereo partly drawn) [Compound 642, 4-(6-chloro-4-(4,5-difluoro-azepan-1-yl)-8-fluoro-2-(((S)-1-methylpyrrolidin-2-yl)methoxy)quinazolin-7-yl)-benzo[d]thiazol-2-amine]",< 500 nM,> 500 nM
"N#Cc1c(N)sc2c(F)ccc(-c3c(Cl)cc4c(N5C[C@H]6CC[C@@H](C5)N6CC5COC5)nc(OC[C@@]56CCCN5C[C@H](F)C6)nc4c3F)c12 [Compound 643, 2-amino-4-(6-chloro-8-fluoro-2-(((2R,7aS)-2-fluorotetrahydro-1H-pyrrolizin-7a(5H)-yl)-methoxy)-4-((1R,5S)-8-(oxetan-3-yl-methyl)-3,8-diazabicyclo[3.2.1]-octan-3-yl)quinazolin-7-yl)-7-fluorobenzo[b]-thiophene-3-carbonitrile]",< 500 nM,> 500 nM

# Second part, the compound after the results:
IC50 [1],IC50 (wildtype Kras / hSOS1),Compound
> 500 nM,> 500 nM,"Nc1nc2c(-c3ccc4c(N5CC6CCC(C5)N6)nc(OC[C@@]56CCCN5C[C@H](F)C6)nc4c3F)ccc(F)c2s1 [Compound 612, 4-(4-(3,8-diazabicyclo-[3.2.1]octan-3-yl)-8-fluoro-2-(((2R,7aS)-2-fluorotetra-hydro-1H-pyrrolizin-7a(5H)-yl)methoxy)quinazolin-7-yl)-7-fluorobenzo[d]thiazol-2-amine]"
< 500 nM,> 500 nM,"CC(C)CN1[C@@H]2CC[C@H]1CN(c1nc(OCC34CCCN3CCC4)nc3c(F)c(-c4ccc(F)c5sc(N)nc45)c(Cl)cc13)C2 [Compound 617, 4-(6-chloro-8-fluoro-4-((1R,5S)-8-isobutyl-3,8-diazabicyclo[3.2.1]octan-3-yl)-2-((tetrahydro-1H-pyrrolizin-7a(5H)-yl)meth-oxy)quinazolin-7-yl)-7-fluorobenzo[d]thiazol-2-amine]"
< 500 nM,> 500 nM,"Nc1nc2c(-c3c(Cl)cc4c(N5CCCNCC5)nc(OC[C@@]56CCCN5C[C@H](F)C6)nc4c3F)ccc(F)c2s1 [Compound 621, 4-(6-chloro-4-(1,4-diazepan-1-yl)-8-fluoro-2-(((2R,7aS)-2-fluorotetrahydro-1H-pyrrolizin-7a(5H)-yl)meth-oxy)quinazolin-7-yl)-7-fluorobenzo[d]thiazol-2-amine]"
< 500 nM,> 500 nM,"Nc1nc2c(-c3c(Cl)cc4c(N5CCC6CNCC6C5)nc(OC[C@@]56CCCN5C[C@H](F)C6)nc4c3F)ccc(F)c2s1 (stereo partly drawn) [Compound 623, 4-(6-chloro-8-fluoro-2-(((2R,7aS)-2-fluorotetra-hydro-1H-pyrrolizin-7a(5H)-yl)methoxy)-4-(octahydro-5H-pyrrolo[3,4-c]pyridin-5-yl)quinazolin-7-yl)-7-fluoro-benzo[d]thiazol-2-amine]"
> 500 nM,> 500 nM,"Nc1nc2c(-c3c(Cl)cc4c(N5CCCCC56CNC6)nc(OC[C@@]56CCCN5C[C@H](F)C6)nc4c3F)ccc(F)c2s1 [Compound 629, 4-(6-chloro-8-fluoro-2-(((2R,7aS)-2-fluorotetra-hydro-1H-pyrrolizin-7a(5H)-yl)methoxy)-4-(2,5-diaza-spiro[3.5]nonan-5-yl)quin-azolin-7-yl)-7-fluorobenzo-[d]thiazol-2-amine]"
< 500 nM,> 500 nM,"N#Cc1c(N)sc2c(F)ccc(-c3c(Cl)cc4c(N5CC6CCC(C5)N6)nc(OC[C@@]56CCCN5C[C@H](F)C6)nc4c3F)c12 [Compound 638, 4-(4-(3,8-diazabicyclo-[3.2.1]octan-3-yl)-6-chloro-8-fluoro-2-(((2R,7aS)-2-fluorotetrahydro-1H-pyrrol-izin-7a(5H)-yl)methoxy)-quinazolin-7-yl)-2-amino-7-fluorobenzo[b]thiophene-3-carbonitrile]"
< 500 nM,> 500 nM,"Nc1nc2c(-c3c(Cl)cc4c(N5CC6CNCC(C5)N6)nc(OC[C@@]56CCCN5C[C@H](F)C6)nc4c3F)ccc(F)c2s1 [Compound 639, 4-(4-(3,7,9-triazabicyclo-[3.3.1]nonan-3-yl)-6-chloro-8-fluoro-2-(((2R,7aS)-2-fluorotetrahydro-1H-pyrrol-izin-7a(5H)-yl)methoxy)-quinazolin-7-yl)-7-fluoro-benzo[d]thiazol-2-amine]"
